Measurements: ChEMBL document CHEMBL1201862, “PubChem BioAssay data set” (2004)
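Protocol summary: plate cells (96-well), add compound at 5 concentrations, incubate 48 h, interpolate endpoints linearly. GI50 = concentration required for 50% inhibition of growth.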 The source made the active and inactive calls. Cut-off read from the data, not from the text of the source: active = GI50 up to about 1.1 µM and inactive = higher.

Columns and labels:
Assay in all cases: NCI tumour cell line growth inhibition, 48 h
[1] = system: XF498
[2] = system: Malme-3M
[3] = system: DLD-1
[4] = system: TK-10
[5] = system: NCI-H23
[6] = system: OVCAR-3
[7] = system: M19-MEL
[8] = system: UO-31
[9] = system: U-251
[10] = system: A498
[11] = system: OVCAR-5
[12] = system: LOX IMVI
[13] = system: EKVX
[14] = system: ACHN
[15] = system: HT-29
[16] = system: SNB-75
[17] = system: SK-MEL-2
[18] = system: K562
[19] = system: A549
[20] = system: HCT-116
[21] = system: RPMI-8226
[22] = system: MOLT-4
[23] = system: NCI-H522
[24] = system: HCC 2998
[25] = system: SW-620
[26] = system: SF-539
[27] = system: 786-0
[28] = system: NCI-H460
[29] = system: HOP-62
[30] = system: IGROV-1
[31] = system: HL-60
[32] = system: CCRF-CEM
[33] = system: UACC-257
[34] = system: SK-MEL-5
[35] = system: SF-295
[36] = system: RXF 631
[37] = system: LXFL 529
[38] = system: HOP-18
[39] = system: DMS-114
[40] = system: HOP-92
[41] = system: SK-OV-3
[42] = system: SNB-19
[43] = system: RXF 393
[44] = system: KM-20L2
[45] = system: KM12
[46] = system: DMS-273
[47] = system: SK-MEL-28
[48] = system: COLO 205
[49] = system: SNB-78
[50] = system: SF-268
[51] = system: OVCAR-8
[52] = system: UACC-62
[53] = system: SN12C
[54] = system: CAKI-1
[55] = system: M14
[56] = system: OVCAR-4
[57] = system: HCT-15
[58] = system: NCI-H226
[59] = system: SR

## O=P(O)(OCC(O)O)OCC(O)O
[1]
  GI50: > 100 µM (inactive)
[2]
  GI50: > 100 µM (inactive)
[3]
  GI50: > 100 µM (inactive)
[4]
  GI50: > 100 µM (inactive)
[5]
  GI50: > 100 µM (inactive)
[6]
  GI50: > 100 µM (inactive)
[7]
  GI50: > 100 µM (inactive)
[8]
  GI50: > 100 µM (inactive)
[9]
  GI50: > 100 µM (inactive)
[10]
  GI50: > 100 µM (inactive)
[11]
  GI50: > 100 µM (inactive)
[12]
  GI50: > 100 µM (inactive)
[13]
  GI50: > 100 µM (inactive)
[14]
  GI50: > 100 µM (inactive)
[15]
  GI50: > 100 µM (inactive)
[16]
  GI50: > 100 µM (inactive)
[17]
  GI50: > 100 µM (inactive)
[18]
  GI50: > 100 µM (inactive)
[19]
  GI50: > 100 µM (inactive)
[20]
  GI50: > 100 µM (inactive)
[21]
  GI50: > 100 µM (inactive)
[22]
  GI50: > 100 µM (inactive)
[23]
  GI50: > 100 µM (inactive)
[24]
  GI50: > 100 µM (inactive)
[25]
  GI50: > 100 µM (inactive)
[26]
  GI50: > 100 µM (inactive)
[27]
  GI50: > 100 µM (inactive)
[28]
  GI50: > 100 µM (inactive)
[29]
  GI50: > 100 µM (inactive)
[30]
  GI50: > 100 µM (inactive)
[31]
  GI50: > 100 µM (inactive)
[32]
  GI50: > 100 µM (inactive)
[33]
  GI50: > 100 µM (inactive)
[34]
  GI50: > 100 µM (inactive)
[35]
  GI50: > 100 µM (inactive)
[36]
  GI50: > 100 µM (inactive)
[37]
  GI50: > 100 µM (inactive)
[38]
  GI50: 41.4 µM (inactive)
[39]
  GI50: > 100 µM (inactive)
[40]
  GI50: > 100 µM (inactive)
[41]
  GI50: > 100 µM (inactive)
[42]
  GI50: > 100 µM (inactive)
[43]
  GI50: > 100 µM (inactive)
[44]
  GI50: > 100 µM (inactive)
[45]
  GI50: > 100 µM (inactive)
[46]
  GI50: > 100 µM (inactive)
[47]
  GI50: > 100 µM (inactive)
[48]
  GI50: > 100 µM (inactive)
[49]
  GI50: > 100 µM (inactive)
[50]
  GI50: > 100 µM (inactive)
[51]
  GI50: > 100 µM (inactive)

## CC1C=CC(=O)C(n2cc(F)c(=O)[nH]c2=O)O1 (stereo not given)
[1]
  GI50: 15.1 µM (inactive)
[2]
  GI50: 14.2 µM (inactive)
[3]
  GI50: 18.6 µM (inactive)
[4]
  GI50: 18.7 µM (inactive)
[5]
  GI50: 18.1 µM (inactive)
[6]
  GI50: 17.3 µM (inactive)
[7]
  GI50: 18.5 µM (inactive)
[8]
  GI50: 16.4 µM (inactive)
[9]
  GI50: 15.7 µM (inactive)
[12]
  GI50: 15.8 µM (inactive)
[13]
  GI50: 22.5 µM (inactive)
[14]
  GI50: 20 µM (inactive)
[15]
  GI50: 18.2 µM (inactive)
[16]
  GI50: 18.8 µM (inactive)
[18]
  GI50: 17.7 µM (inactive)
[19]
  GI50: 24.4 µM (inactive)
[20]
  GI50: 15.7 µM (inactive)
[21]
  GI50: 14.4 µM (inactive)
[22]
  GI50: 16.5 µM (inactive)
[25]
  GI50: 17.6 µM (inactive)
[26]
  GI50: 17.2 µM (inactive)
[27]
  GI50: 16 µM (inactive)
[28]
  GI50: 23.3 µM (inactive)
[52]
  GI50: 16.2 µM (inactive)
[53]
  GI50: 18.4 µM (inactive)
[29]
  GI50: 20.8 µM (inactive)
[30]
  GI50: 20.8 µM (inactive)
[31]
  GI50: 20.1 µM (inactive)
[32]
  GI50: 8.89 µM (inactive)
[33]
  GI50: 16.4 µM (inactive)
[34]
  GI50: 17.9 µM (inactive)
[35]
  GI50: > 10 µM (inactive)
[54]
  GI50: 11.6 µM (inactive)
[36]
  GI50: 19.7 µM (inactive)
[38]
  GI50: 10.8 µM (inactive)
[39]
  GI50: 15.9 µM (inactive)
[40]
  GI50: 17.5 µM (inactive)
[41]
  GI50: 27.7 µM (inactive)
[42]
  GI50: 22.2 µM (inactive)
[43]
  GI50: 19.8 µM (inactive)
[55]
  GI50: 18.1 µM (inactive)
[44]
  GI50: 21.3 µM (inactive)
[46]
  GI50: 21.4 µM (inactive)
[56]
  GI50: 18.5 µM (inactive)
[47]
  GI50: 23.4 µM (inactive)
[57]
  GI50: 16.6 µM
[48]
  GI50: 20.1 µM (inactive)
[49]
  GI50: 28.2 µM (inactive)
[51]
  GI50: 22.4 µM (inactive)

## CCOC(=O)c1cnc2[nH]c(=O)c3ccccc3n2c1=O
[1]
  GI50: > 100 µM (inactive)
[2]
  GI50: > 100 µM (inactive)
[3]
  GI50: > 100 µM (inactive)
[4]
  GI50: > 100 µM (inactive)
[5]
  GI50: > 100 µM (inactive)
[6]
  GI50: > 100 µM (inactive)
[7]
  GI50: > 100 µM (inactive)
[8]
  GI50: > 100 µM (inactive)
[9]
  GI50: > 100 µM (inactive)
[58]
  GI50: > 100 µM (inactive)
[11]
  GI50: > 100 µM (inactive)
[12]
  GI50: > 100 µM (inactive)
[13]
  GI50: > 100 µM (inactive)
[14]
  GI50: > 100 µM (inactive)
[15]
  GI50: > 100 µM (inactive)
[16]
  GI50: > 100 µM (inactive)
[17]
  GI50: > 100 µM (inactive)
[18]
  GI50: 65 µM (inactive)
[19]
  GI50: > 100 µM (inactive)
[20]
  GI50: > 100 µM (inactive)
[21]
  GI50: > 100 µM (inactive)
[22]
  GI50: > 100 µM (inactive)
[23]
  GI50: > 100 µM (inactive)
[25]
  GI50: > 100 µM (inactive)
[26]
  GI50: > 100 µM (inactive)
[27]
  GI50: > 100 µM (inactive)
[28]
  GI50: > 100 µM (inactive)
[52]
  GI50: > 100 µM (inactive)
[53]
  GI50: > 100 µM (inactive)
[29]
  GI50: > 100 µM (inactive)
[30]
  GI50: > 100 µM (inactive)
[31]
  GI50: 85.5 µM (inactive)
[32]
  GI50: > 100 µM (inactive)
[33]
  GI50: > 100 µM (inactive)
[34]
  GI50: > 100 µM (inactive)
[35]
  GI50: > 100 µM (inactive)
[54]
  GI50: > 100 µM (inactive)
[36]
  GI50: > 100 µM (inactive)
[37]
  GI50: > 100 µM (inactive)
[38]
  GI50: > 100 µM (inactive)
[40]
  GI50: > 100 µM (inactive)
[41]
  GI50: > 100 µM (inactive)
[42]
  GI50: > 100 µM (inactive)
[43]
  GI50: > 100 µM (inactive)
[55]
  GI50: > 100 µM (inactive)
[44]
  GI50: > 100 µM (inactive)
[45]
  GI50: > 100 µM (inactive)
[46]
  GI50: > 100 µM (inactive)
[56]
  GI50: > 100 µM (inactive)
[47]
  GI50: > 100 µM (inactive)
[57]
  GI50: > 100 µM
[48]
  GI50: > 100 µM (inactive)
[49]
  GI50: > 100 µM (inactive)
[59]
  GI50: > 100 µM (inactive)
[50]
  GI50: 94.6 µM (inactive)
[51]
  GI50: > 100 µM (inactive)

## [O-][n+]1ccccc1S [PYRITHIONE ZINC]
[1]
  GI50: 0.226 µM (active)
[2]
  GI50: 2.45 µM (inactive)
[3]
  GI50: 0.115 µM (active)
[4]
  GI50: 10.1 µM (inactive)
[5]
  GI50: 1.21 µM (inactive)
[6]
  GI50: 0.304 µM (active)
[7]
  GI50: 0.562 µM (active)
[8]
  GI50: 2.43 µM (inactive)
[9]
  GI50: 1.34 µM (inactive)
[10]
  GI50: 0.796 µM (active)
[58]
  GI50: 10.2 µM (inactive)
[11]
  GI50: 5.55 µM (inactive)
[12]
  GI50: 1.4 µM (inactive)
[13]
  GI50: 2.98 µM (inactive)
[14]
  GI50: 3.21 µM (inactive)
[15]
  GI50: 0.176 µM (active)
[16]
  GI50: 3.03 µM (inactive)
[17]
  GI50: 1.49 µM (inactive)
[18]
  GI50: 0.107 µM (active)
[19]
  GI50: 1.55 µM (inactive)
[20]
  GI50: 0.5 µM (active)
[21]
  GI50: 0.1 µM (active)
[22]
  GI50: 0.0973 µM (active)
[23]
  GI50: 0.107 µM (active)
[24]
  GI50: 0.452 µM (active)
[25]
  GI50: 0.161 µM (active)
[26]
  GI50: 1.97 µM (inactive)
[27]
  GI50: 0.343 µM (active)
[28]
  GI50: 1.63 µM (inactive)
[52]
  GI50: 0.604 µM (active)
[53]
  GI50: 1.87 µM (inactive)
[29]
  GI50: 4.34 µM (inactive)
[30]
  GI50: 1.14 µM (inactive)
[31]
  GI50: 0.232 µM (active)
[32]
  GI50: 0.0331 µM (active)
[33]
  GI50: 2.09 µM (inactive)
[34]
  GI50: 1.22 µM (inactive)
[35]
  GI50: 4.46 µM (inactive)
[54]
  GI50: 5.13 µM (inactive)
[36]
  GI50: 0.968 µM (active)
[37]
  GI50: 0.327 µM (active)
[38]
  GI50: 3.78 µM (inactive)
[39]
  GI50: 0.419 µM (active)
[40]
  GI50: 3.24 µM (inactive)
[41]
  GI50: 17.4 µM (inactive)
[42]
  GI50: 5.2 µM (inactive)
[43]
  GI50: 0.135 µM (active)
[55]
  GI50: 1.25 µM (inactive)
[44]
  GI50: 1.04 µM (active)
[45]
  GI50: 1.38 µM (inactive)
[46]
  GI50: 0.366 µM (active)
[56]
  GI50: 0.542 µM (active)
[47]
  GI50: 1.97 µM (inactive)
[57]
  GI50: 0.577 µM
[48]
  GI50: 0.625 µM (active)
[49]
  GI50: 3.94 µM (inactive)
[59]
  GI50: 0.168 µM (active)
[50]
  GI50: 1.03 µM (active)
[51]
  GI50: 3.01 µM (inactive)
